Experimental data published in the RepoRT retention time repository (doi:10.1038/s41596-020-0341-5).

Test: RP, Waters ACQUITY UPLC BEH C8, 100 × 2.1 mm, 1.7 µm, 50 °C, 0.35 mL/min, estimated dead time 0.63 min; A: water + 0.1% formic acid; B: acetonitrile + 0.1% formic acid; gradient (min/%B) 0/5 1/5 24/100 28/100
Conditions: stereoisomer not certain
In the case of Nc1nc2ccc(C(=O)c3ccccc3)cc2[nH]1, the LC retention time is reported as 5.28 min. In the case of CCCCCCCCCCCCCC=CC(O)C(N)COP(=O)(O)O (stereo not drawn), the LC retention time is reported as 13 min. For NC(Cc1ccccc1)C(=O)O (stereo not drawn), the LC retention time was 1.63 min. CCCCCCCCCCCCCCCC(O)C(N)CO (stereo not drawn) showed an LC retention time of 12.6 min. In the case of CCn1cc(C(=O)O)c(=O)c2ccc(C)nc21, the LC retention time is reported as 7.7 min. C1CCNC1 showed an LC retention time of 1.03 min. With CCCCCCCCCCCCCCCCCCCC(=O)OC(CC(=O)O)C[N+](C)(C)C (stereo not drawn) the LC retention time was 17.1 min. In the case of CC(=O)Nc1ccc(OC2OC(C(=O)O)C(O)C(O)C2O)cc1 (stereo not drawn), the LC retention time is reported as 1.22 min. CCCCCCC=CCCCC(=O)OC(CC(=O)O)C[N+](C)(C)C (stereo not drawn) showed an LC retention time of 11.4 min. CCCCCCCCCCCCCCCC(=O)O showed an LC retention time of 18.4 min. O=C(O)C=Cc1ccccc1 gave an LC retention time of 1.6 min. Work on CC(C)C1=CC2=CCC3C(C)(C(=O)O)CCCC3(C)C2CC1 (stereo not drawn) yielded an LC retention time of 17.1 min. With CCCCC=CCCC(=O)OC(CC(=O)O)C[N+](C)(C)C (stereo not drawn) the LC retention time was 7.65 min. With CCCCCCCCCCCCCCCCCCCCCCCCCC(=O)OC(CC(=O)O)C[N+](C)(C)C (stereo not drawn) the LC retention time was 19.8 min. CCCCCCCCCCCCCCCCCC(N)=O gave an LC retention time of 18.4 min. CCCC=CCCC(=O)OC(CC(=O)O)C[N+](C)(C)C (stereo not drawn) gave an LC retention time of 6.8 min. In the case of CCCCCCCCC(=O)OC(CC(=O)O)C[N+](C)(C)C (stereo not drawn), the LC retention time is reported as 8.62 min. In the case of Cc1cc2nc3c(=O)[nH]c(=O)nc-3n(CC(O)C(O)C(O)CO)c2cc1C (stereo not drawn), the LC retention time is reported as 3.85 min. CC(CCC(=O)NCC(=O)O)C1CCC2C3CCC4CC(O)CCC4(C)C3CC(O)C12C (stereo not drawn) showed an LC retention time of 11.8 min. Work on CCCCOC(=O)c1ccccc1C(=O)OCCCC yielded an LC retention time of 15.7 min. With NCCc1c[nH]c2ccc(O)cc12 the LC retention time was 1.02 min. Work on O=Cc1ccc(O)cc1 yielded an LC retention time of 1.03 min. With CC(C)CC(NC(=O)C1CCCN1)C(=O)O (stereo not drawn) the LC retention time was 1.12 min. In the case of CCCCCC=CCCC(=O)OC(CC(=O)O)C[N+](C)(C)C (stereo not drawn), the LC retention time is reported as 9.35 min. In the case of CCCCCCCCCCCCCCCC(=O)OCC(O)COP(=O)([O-])OCC[N+](C)(C)C (stereo not drawn), the LC retention time is reported as 14.3 min. In the case of CCCCCCCCC=CCCCCCCCC(N)=O, the LC retention time is reported as 17.4 min. For CCCCCCCCCCCCCCCC(N)=O, the LC retention time was 16.9 min. In the case of CC(C)CC(NC(=O)CCC([NH3+])C(=O)[O-])C(=O)[O-] (stereo not drawn), the LC retention time is reported as 3.05 min. In the case of CCCCCCCCCCCCCCCCCCCCCC(=O)OC(CC(=O)O)C[N+](C)(C)C (stereo not drawn), the LC retention time is reported as 18.1 min. Work on CCCCCCCCC=CCCCCCCCCCC(=O)O yielded an LC retention time of 20.1 min. Work on O=CCC(O)C(O)C(O)CO (stereo not drawn) yielded an LC retention time of 0.783 min. For CCCCCCCCC=CCCCCCCCCCC(=O)OC(CC(=O)O)C[N+](C)(C)C (stereo not drawn), the LC retention time was 16.3 min. Work on CCCCCC=CCC=CCC=CCCCCCCC(=O)O yielded an LC retention time of 18.4 min. CCC=CCC=CCC=CCC=CCC=CCCCC(=O)OCC(COP(=O)([O-])OCC[N+](C)(C)C)OC(=O)CCCC=CCC=CCC=CCCCCCCCC (stereo not drawn) gave an LC retention time of 22 min. In the case of Cn1cccc1-c1cccnc1, the LC retention time is reported as 2.47 min. For CC(C)CCCC(C)C1CCC2C3CCC4=CC(=O)CCC4(C)C3CCC12C (stereo not drawn), the LC retention time was 21.8 min. Oc1ccc2[nH]ccc2c1 showed an LC retention time of 3.23 min. With CCCCCCCCC=CCC=CCCC(=O)OC(CC(=O)O)C[N+](C)(C)C (stereo not drawn) the LC retention time was 13.2 min. Compound C[N+](C)(C)CC(O)CC(=O)[O-] (stereo not drawn) has an LC retention time of 0.767 min. For CCCCCC=CCC=CCCCCCCCC(=O)OCC(O)CO (stereo not drawn), the LC retention time was 17 min. Compound CC(C)CCCCCOC(=O)c1ccccc1C(=O)OCCCCCC(C)C has an LC retention time of 20.8 min. Work on CCCCCCCCCCCCCCCCCCCCCCCC(=O)OC(CC(=O)O)C[N+](C)(C)C (stereo not drawn) yielded an LC retention time of 19 min. Compound CCCCCC=CCC=CCC=CCC=CCCCC(=O)O has an LC retention time of 17.9 min. CCCCCCCCCCCCCCCC(=O)NCCO gave an LC retention time of 16.3 min. NC(Cc1c[nH]c2ccccc12)C(=O)O (stereo not drawn) gave an LC retention time of 2.47 min. O=C(O)C(O)Cc1c[nH]c2ccccc12 (stereo not drawn) gave an LC retention time of 5.17 min. For CCCCC=CCCCCCCCC(=O)OC(CC(=O)O)C[N+](C)(C)C (stereo not drawn), the LC retention time was 12.7 min. CCCCCCCCOC(=O)c1ccccc1C(=O)OCCCCCCCC showed an LC retention time of 21.4 min. CC(C)NCC(O)COc1ccc(CC(N)=O)cc1 (stereo not drawn) showed an LC retention time of 2.03 min. Work on CCC=CCC=CCCC(=O)OC(CC(=O)O)C[N+](C)(C)C (stereo not drawn) yielded an LC retention time of 8.58 min. CCC=CCC=CCC=CCC=CCC=CCC=CCCC(=O)O gave an LC retention time of 17.8 min. For CCCCCCC(N)C(=O)O (stereo not drawn), the LC retention time was 0.8 min. Work on Cc1cnc2ccccc2c1 yielded an LC retention time of 2.47 min. With O=c1[nH]cnc2nc[nH]c12 the LC retention time was 1.02 min. CCCCC=CC=CCCCCCC(=O)OC(CC(=O)O)C[N+](C)(C)C (stereo not drawn) showed an LC retention time of 11.9 min. NC(Cc1ccc(O)cc1)C(=O)O (stereo not drawn) gave an LC retention time of 1.03 min. For CCCCCCCCC=CCCCCCC(=O)OC(CC(=O)O)C[N+](C)(C)C (stereo not drawn), the LC retention time was 13.9 min. Work on O=C(O)C1CCCN1 (stereo not drawn) yielded an LC retention time of 0.9 min. O=C(CO)CO showed an LC retention time of 1.6 min. In the case of CCCCCCCCCCCCCCC(=O)OC(CC(=O)O)C[N+](C)(C)C (stereo not drawn), the LC retention time is reported as 13.8 min. With CCCCC=CCCCCCCC(=O)OC(CC(=O)O)C[N+](C)(C)C (stereo not drawn) the LC retention time was 11.8 min. For NC(Cc1ccccc1)C(=O)N1CCCC1C(=O)O (stereo not drawn), the LC retention time was 4.18 min. Work on CCCCCCC=CCCCCCCCCCC(=O)O yielded an LC retention time of 18.9 min. In the case of Cn1c(=O)[nH]c2ncn(C)c2c1=O, the LC retention time is reported as 2.28 min. Work on CCCCCCC=CCCCCCCCCCCOCC(O)COP(=O)([O-])OCC[N+](C)(C)C (stereo not drawn) yielded an LC retention time of 14.4 min. NN1CCOC1=O gave an LC retention time of 1.6 min. CCCCCCCCCCCCCCC=CCCCCCCCCCC(=O)OC(CC(=O)O)C[N+](C)(C)C (stereo not drawn) gave an LC retention time of 19.1 min. For CCCCCCC=CCCCCCCCCCC(=O)OC(CC(=O)O)C[N+](C)(C)C (stereo not drawn), the LC retention time was 15.2 min. CCCC(=O)OC(CC(=O)O)C[N+](C)(C)C (stereo not drawn) showed an LC retention time of 2.28 min. With CCCCCC=CC=CCCCCCCCCC(=O)OC(CC(=O)O)C[N+](C)(C)C (stereo not drawn) the LC retention time was 14.4 min. Compound CC(=O)CCC=C(C)CCC=C(C)CCC=C(C)C has an LC retention time of 17.9 min. With CC12CCC(=O)C=C1CCC1C2C(O)CC2(C)C1CCC2(O)C(=O)CO (stereo not drawn) the LC retention time was 7.77 min. CC(=O)Nc1ccc(O)cc1 gave an LC retention time of 1.98 min. For CC(C)CCCC(C)C1CCC2C3C(=O)C=C4CC(O)CCC4(C)C3CCC12C (stereo not drawn), the LC retention time was 19.4 min. Cn1cnc2c(ncn2C2OC(CO)C(O)C2O)c1=N (stereo not drawn) gave an LC retention time of 1 min. CC(CCC(=O)O)C1CCC2C3CCC4CC(O)CCC4(C)C3CC(O)C12C (stereo not drawn) gave an LC retention time of 13.3 min. With NC(=O)CCC(NC(=O)Cc1ccccc1)C(=O)O (stereo not drawn) the LC retention time was 3.67 min. CC(CCC(=O)NCC(=O)O)C1CCC2C3C(O)C(O)C4CC(O)CCC4(C)C3CCC12C (stereo not drawn) showed an LC retention time of 9.97 min. Compound C=CC1=C(C)C(C=c2[nH]c(=Cc3[nH]c(C=C4NC(=O)C(C)=C4C=C)c(C)c3CCC(=O)O)c(CCC(=O)O)c2C)=NC1=O has an LC retention time of 10.7 min. With CC(C)(CO)C(O)C(=O)NCCC(=O)O (stereo not drawn) the LC retention time was 1.92 min. Work on Nc1ccccc1C(=O)CC(N)C(=O)O (stereo not drawn) yielded an LC retention time of 1.53 min. With CCCCCCCCCCCCCC(=O)OC(CC(=O)O)C[N+](C)(C)C (stereo not drawn) the LC retention time was 13.3 min. CCCCCCCCC=CCCCCCCCC(=O)NCCO gave an LC retention time of 16.9 min. With O=C(O)C1CCCCN1 (stereo not drawn) the LC retention time was 0.817 min. CCC=CCC=CCC=CCCCCCCCC(=O)O showed an LC retention time of 17.1 min. Work on CCCCCCCCCCCCCCCCCCOCC(O)COP(=O)([O-])OCC[N+](C)(C)C (stereo not drawn) yielded an LC retention time of 15.3 min. Compound CCCCCCC=CCCCCCCCC(=O)O has an LC retention time of 17.4 min. O=C(O)c1ccccc1O gave an LC retention time of 4.47 min. Compound CCC=CCC=CCC=CCC=CCC=CCCCC(=O)O has an LC retention time of 18.1 min. O=C(O)CCc1c[nH]c2ccccc12 gave an LC retention time of 7.33 min. Work on CCCCCCCCCCCCCCCCCCC(=O)OCC(O)COP(=O)([O-])OCC[N+](C)(C)C (stereo not drawn) yielded an LC retention time of 16.8 min. CCCCCC=CCC=CCC=CCCCCCCC(=O)OCC(COP(=O)([O-])OCC[N+](C)(C)C)OC(=O)CCCCCCCCCCCCC (stereo not drawn) gave an LC retention time of 20.2 min. CCCCCCCCC=CCCCCCCCCCCCC(N)=O gave an LC retention time of 18.8 min. CCCCCC=CCC=CCC=CCCCCCCC(=O)OCC(O)COP(=O)([O-])OCC[N+](C)(C)C (stereo not drawn) showed an LC retention time of 15.9 min. With CCCCC(=O)OC(CC(=O)O)C[N+](C)(C)C (stereo not drawn) the LC retention time was 3.7 min. Work on CSCCC(N)C(=O)O (stereo not drawn) yielded an LC retention time of 1.02 min. In the case of NC(Cc1ccccc1)C(=O)NC(Cc1ccccc1)C(=O)O (stereo not drawn), the LC retention time is reported as 5.35 min. O=C(O)C(O)c1ccc(O)c(O)c1 (stereo not drawn) gave an LC retention time of 13.9 min.
